We go through eleven molecules from ChEMBL document CHEMBL1201862, “PubChem BioAssay data set” (2004).

What all share (experiment): NCI anticancer screen, dose series, 48 h
For assay [1], the system named is 786-0.
For assay [2], the system named is RXF 393.
The test system of assay [3] is MCF7.
Assay [4] concerns MDA-N.
Assay [5] has as its system HOP-62.
Assay [6] deals with DU-145.
Assay [7] deals with CAKI-1.
Assay [8] deals with SR.
Assay [9] deals with UACC-62.
Assay [10] has as its system HT-29.
Assay [11] concerns NCI-H522.
Assay [12] concerns HCT-116.
For assay [13], the system named is RPMI-8226.
Assay [14] deals with IGROV-1.
In assay [15] the test system is A498.
Assay [16] has as its system HL-60.
Assay [17] relates to SK-MEL-5.
Assay [18] relates to TK-10.
The test system of assay [19] is NCI-H460.
Assay [20] relates to SNB-75.

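Following 48 hours of exposure in 96-well plates, responses at five concentrations were used to interpolate endpoints linearly. GI50 marks 50% less growth.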 Calls of active or inactive are those of the source. No stated cut-off is given here; in the data, active = GI50 up to about 1.1 µM and inactive = higher. A value given as a limit tells only on which side of the number the result lay.

In the case of `CCC1c2[nH]c3ccccc3c2C[C@H]2C(=O)NC(CCC(=O)OC(C)(C)C)C(=O)N12` (some centres not stated), the GI50 in assay [1] was 56.6 µM (inactive); in assay [2], 52.7 µM (inactive); in [3], 42.4 µM (inactive); in assay [4], 51.5 µM (inactive); in [5], 78.5 µM (inactive); in [6], > 100 µM (inactive). Moreover, the GI50 in [7] is > 100 µM (inactive); in assay [8] it was 41.7 µM (inactive); in assay [9] it was 66.5 µM (inactive); in [10] it was 34 µM (inactive); in assay [11] it was 29.6 µM (inactive); in [12], 43.3 µM (inactive). Besides, the GI50 in assay [13] is 31.6 µM (inactive); in assay [14], 53.8 µM (inactive); in [15], 89.7 µM (inactive); in assay [16] it was 34 µM (inactive); in [17], 39.4 µM (inactive); in assay [18] it was 42.6 µM (inactive).

In the case of `CCCCOC(=O)NC(Nc1ccc(S(=O)(=O)Nc2ccc(OC)nn2)cc1)(C(F)(F)F)C(F)(F)F`, the GI50 in [1], in [2], in assay [3], in [4], in assay [5] and in assay [6] was > 100 µM (inactive) each time. The GI50 in assay [7], in assay [8], in [9], in assay [10], in assay [12] and in assay [19] was > 100 µM (inactive) in each case. Besides, the GI50 in assay [13], in assay [14], in assay [15], in [16], in [17] and in [18] was > 100 µM (inactive) throughout.

Consider `CC(N/N=N/c1ccc(-c2nc3ccccc3[nH]2)cc1)C(=O)O` (configuration not stated), for which the GI50 in assay [1] is 15.7 µM (inactive); in [20] it was > 100 µM (inactive); in [2], 34.1 µM (inactive); in assay [3] it was 4.21 µM (inactive); in [4], 27.5 µM (inactive); in assay [5] it was 45.2 µM (inactive). Also, the GI50 in assay [6] is 49.4 µM (inactive); in [7], 42.7 µM (inactive); in assay [8] it was 2.4 µM (inactive); in assay [10], 29.5 µM (inactive); in assay [11] it was 23.3 µM (inactive); in assay [12], 28.9 µM (inactive). The GI50 is 17.5 µM (inactive) in assay [19]; 1.91 µM (inactive) in assay [13]; 12.9 µM (inactive) in assay [14]; > 100 µM (inactive) in assay [15]; 32.6 µM (inactive) in assay [16]; 18.8 µM (inactive) in [17]. In addition, the GI50 in [18] is 81.7 µM (inactive).

For the molecule `COc1ccc(C(O)c2ccc3c(c2)OCO3)cc1` (configuration not stated), the GI50 was > 100 µM (inactive) in assay [1]; 1.94 µM (inactive) in [20]; > 100 µM (inactive) in assay [2]; > 100 µM (inactive) in [3]; > 100 µM (inactive) in assay [4]; > 100 µM (inactive) in assay [5]. Also, the GI50 was > 100 µM (inactive) in assay [6]; > 100 µM (inactive) in assay [7]; 25.6 µM (inactive) in [8]; > 100 µM (inactive) in assay [9]; > 100 µM (inactive) in assay [10]; > 100 µM (inactive) in assay [11]. For the same molecule, the GI50 in assay [12], in assay [19], in assay [14], in assay [15], in [16] and in assay [18] was > 100 µM (inactive) in each case.

For `COc1ccccc1C1SCC(=O)N1c1ccc(-n2c(-c3ccccc3)nc3ccccc3c2=O)cc1` (configuration not stated), the GI50 was > 100 µM (inactive) in [1]; 3.51 µM (inactive) in assay [20]; 39.1 µM (inactive) in assay [3]; > 100 µM (inactive) in assay [4]; > 100 µM (inactive) in [5]; 52.5 µM (inactive) in [6]. For the same molecule, the GI50 in assay [7] is 82 µM (inactive); in assay [8], 81.7 µM (inactive); in assay [9], 29.2 µM (inactive); in [10] it was 64.1 µM (inactive); in assay [11], 40.3 µM (inactive); in [12], 57.1 µM (inactive). In addition, the GI50 in assay [19] was 40.7 µM (inactive); in [13], > 100 µM (inactive); in [14] it was 46.6 µM (inactive); in assay [15] it was 36 µM (inactive); in [16], > 10 µM (inactive); in assay [17], 37.5 µM (inactive). Also, the GI50 in [18] was > 100 µM (inactive).

`c1sc(NC2=NCCO2)c2c1CCCC2`: the GI50 in [1], in assay [20], in [2], in assay [3], in assay [4] and in assay [6] was > 100 µM (inactive) each time. Besides, the GI50 in assay [7], in [8], in assay [9], in assay [10], in assay [11] and in [12] was > 100 µM (inactive) each time. For the same molecule, the GI50 in assay [19], in assay [13], in assay [14], in assay [15], in [16] and in assay [17] was > 100 µM (inactive) in each case. Further, in [18], the GI50 is > 100 µM (inactive).

As for `O=C(COc1ccc(OCC(=O)N/N=C/c2ccc(-c3ccc(Cl)cc3Cl)o2)c(Cl)c1)N/N=C/c1ccc(-c2ccc(Cl)cc2Cl)o1`, the GI50 in [1] is 94.4 µM (inactive); in assay [2] it was 33.6 µM (inactive); in assay [3], 41.8 µM (inactive); in assay [4], 31.6 µM (inactive); in [5], 27.5 µM (inactive); in assay [6], > 100 µM (inactive). Further, the GI50 was > 100 µM (inactive) in assay [7]; 0.342 µM (active) in assay [8]; 27.9 µM (inactive) in [9]; > 100 µM (inactive) in assay [10]; 81.8 µM (inactive) in [11]; > 100 µM (inactive) in assay [12]. In addition, the GI50 was > 100 µM (inactive) in assay [19]; 12.6 µM (inactive) in assay [13]; > 100 µM (inactive) in assay [14]; 49.3 µM (inactive) in assay [15]; 16.4 µM (inactive) in [16]; > 100 µM (inactive) in assay [17]. For the same molecule, the GI50 in assay [18] is > 100 µM (inactive).

In the case of `Cc1cc2c(cc1N)C(C)C1(CCC(=O)N2Cc2ccccc2)OCCO1` (configuration not stated), the GI50 is > 100 µM (inactive) in [1]; 32.3 µM (inactive) in assay [20]; > 100 µM (inactive) in assay [3]; > 100 µM (inactive) in assay [4]; > 100 µM (inactive) in [5]; > 100 µM (inactive) in assay [6]. Moreover, the GI50 in [7] is > 100 µM (inactive); in assay [8], 39.2 µM (inactive); in assay [9], > 100 µM (inactive); in [10] it was > 100 µM (inactive); in assay [11], > 100 µM (inactive); in assay [12] it was > 100 µM (inactive). The GI50 in [19] is > 100 µM (inactive); in [13], 57.4 µM (inactive); in [14], > 100 µM (inactive); in [15], > 100 µM (inactive); in assay [17] it was > 100 µM (inactive); in assay [18] it was > 100 µM (inactive).

On to `O=c1[nH]c(=O)n(C2CC(O)C(CO)O2)cc1/N=N/NCCCc1ccccc1` (configuration not stated), for which the GI50 in assay [1], in [2], in assay [3], in assay [4], in assay [5] and in [6] was > 100 µM (inactive) throughout. Besides, the GI50 in [7], in [8], in [9], in [10], in assay [12] and in [19] was > 100 µM (inactive) each time. For the same molecule, the GI50 in assay [14], in assay [15], in assay [16], in assay [17] and in [18] was > 100 µM (inactive) each time.

For `C=CCN1CCC(c2cc(C(=O)OCC)[nH]c2-c2cc(C)no2)C1=O` (configuration not stated), the GI50 was > 100 µM (inactive) in [1]; 94.8 µM (inactive) in [20]; > 100 µM (inactive) in assay [2]; > 100 µM (inactive) in assay [3]; > 100 µM (inactive) in [4]; > 100 µM (inactive) in [5]. Further, the GI50 in assay [6] was > 100 µM (inactive); in assay [7], > 100 µM (inactive); in [8], 43.8 µM (inactive); in assay [9] it was > 100 µM (inactive); in assay [10], > 100 µM (inactive); in assay [12], > 100 µM (inactive). Also, the GI50 in [19] was > 100 µM (inactive); in [13], > 100 µM (inactive); in assay [14], > 100 µM (inactive); in [15], > 100 µM (inactive); in assay [16], 76.2 µM (inactive); in assay [17] it was > 100 µM (inactive).

For the molecule `CC(c1ccccc1)n1c2ccccc2c2c(N)ncnc21` (configuration not stated), the GI50 was 14.9 µM (inactive) in [1]; 1.4 µM (inactive) in assay [20]; 18.3 µM (inactive) in assay [2]; 20.7 µM (inactive) in assay [3]; 22.6 µM (inactive) in [4]; 17.5 µM (inactive) in assay [5]. The GI50 in assay [6] is 18.6 µM (inactive); in assay [7], 16.1 µM (inactive); in [8] it was 24.7 µM (inactive); in assay [10], 17.3 µM (inactive); in assay [11], 13.6 µM (inactive); in assay [12], 21.5 µM (inactive). Further, the GI50 in assay [19] was 24.3 µM (inactive); in assay [13], 42.4 µM (inactive); in [14], 18.9 µM (inactive); in assay [15], 15.7 µM (inactive); in [16], 23.9 µM (inactive); in assay [17], 19.5 µM (inactive). For the same molecule, in assay [18], the GI50 is 17.1 µM (inactive).
